Measured values: ChEMBL document CHEMBL5154653, “The discovery of 1, 3-diamino-7H-pyrrol[3, 2-f]quinazoline compounds as potent antimicrobial antifolates” (Eur J Med Chem, 2022)
Activity calls are given as the source filed them. No cut-off for these calls is given here.

Tests used:
[1] = test system: Acinetobacter baumannii; test: Antibacterial activity against Acinetobacter baumannii ATCC 19606 assessed as reduction in microbial growth after 16 to 18 hrs by microbroth dilution method; type: functional; conditions: time 16-18 hrs
[2] = test system: Escherichia coli; test: Antibacterial activity against Escherichia coli ATCC 25922 assessed as reduction in microbial growth after 16 to 18 hrs by microbroth dilution method; type: functional; conditions: time 16-18 hrs
[3] = test system: Klebsiella pneumoniae; test: Antibacterial activity against Klebsiella pneumoniae ATCC 700603 assessed as reduction in microbial growth after 16 to 18 hrs by microbroth dilution method; type: functional; conditions: time 16-18 hrs
[4] = test system: Escherichia coli; test: Inhibition of Escherichia coli C-terminal hexahistidine tagged DHFR at 5 uM incubated for 5 mins in presence of NADPH by measuring oxidation of NADPH to NADP+
[5] = test system: Klebsiella pneumoniae; test: Antibacterial activity against ESBL-producing Klebsiella pneumoniae CCPM(A)-081514 assessed as reduction in microbial growth after 16 to 18 hrs by microbroth dilution method; type: functional; conditions: time 16-18 hrs
[6] = test system: Escherichia coli; test: Antibacterial activity against Escherichia coli ATCC 25922 assessed as blockage of folate pathway after 16 to 18 hrs in presence of thymine by microbroth dilution method; type: functional; conditions: time 16-18 hrs
[7] = test system: Escherichia coli; test: Antibacterial activity against Escherichia coli CCPM(A)-0715118 assessed as reduction in microbial growth after 16 to 18 hrs by microbroth dilution method; type: functional; conditions: time 16-18 hrs
[8] = test system: Klebsiella pneumoniae; test: Antibacterial activity against ESBL-producing Klebsiella pneumoniae ATCC 700603 assessed as reduction in microbial growth after 16 to 18 hrs by microbroth dilution method; type: functional; conditions: time 16-18 hrs
[9] = test system: Escherichia coli; test: Binding affinity to Escherichia coli C-terminal hexahistidine tagged DHFR assessed as change in entropy at 0.2 mM by isothermal titration calorimetry method
[10] = test system: Escherichia coli; test: Antibacterial activity against ESBL-producing Escherichia coli CCPM(A)-071030 assessed as reduction in microbial growth after 16 to 18 hrs by microbroth dilution method; type: functional; conditions: time 16-18 hrs
[11] = target: Thymidylate synthase (Escherichia coli K-12, UniProt P0A884); test: Inhibition of Escherichia coli N-terminal hexahstidine-tagged TS by steady-state kinetic analysis
[12] = test system: Escherichia coli; test: Antibacterial activity against Escherichia coli ATCC 25922 assessed as blockage of folate pathway after 16 to 18 hrs in presence of thymine by measuring fold increase in MIC by microbroth dilution method; type: functional; conditions: time 16-18 hrs
[13] = target: Thymidylate synthase (Escherichia coli K-12) (UniProt P0A884); test: Inhibition of Escherichia coli N-terminal hexahstidine-tagged TS at 500 uM by steady-state kinetic analysis
[14] = test system: Acinetobacter baumannii; test: Antibacterial activity against Acinetobacter baumannii CCPM(A)-100947 assessed as reduction in microbial growth after 16 to 18 hrs by microbroth dilution method; type: functional; conditions: time 16-18 hrs
[15] = target: Thymidylate synthase (Escherichia coli K-12) (UniProt P0A884); test: Binding affinity to Escherichia coli […] hexahistidine-tagged TS at 20 uM by biolayer interferometry assay
[16] = Binding affinity to Escherichia coli C-terminal hexahistidine tagged DHFR assessed as dissociation constant by isothermal titration calorimetry method
[17] = test system: Klebsiella pneumoniae; test: Antibacterial activity against Klebsiella pneumoniae CCPM(A)-081018 assessed as reduction in microbial growth after 16 to 18 hrs by microbroth dilution method; type: functional; conditions: time 16-18 hrs
[18] = Inhibition of Escherichia coli C-terminal hexahistidine tagged DHFR incubated for 5 mins in presence of NADPH by measuring oxidation of NADPH to NADP+
[19] = test system: Escherichia coli; test: Antibacterial activity against ESBL-producing Escherichia coli CCPM(A)-0715142 assessed as reduction in microbial growth after 16 to 18 hrs by microbroth dilution method; type: functional; conditions: time 16-18 hrs
[20] = test system: Acinetobacter baumannii; test: Antibacterial activity against Acinetobacter baumannii CCPM(A)-100946 assessed as reduction in microbial growth after 16 to 18 hrs by microbroth dilution method; type: functional; conditions: time 16-18 hrs
[21] = test system: Enterococcus faecium; test: Antibacterial activity against vancomycin-resistant Enterococcus faecium ATCC 51559 assessed as reduction in microbial growth after 16 to 18 hrs by microbroth dilution method; type: functional; conditions: time 16-18 hrs
[22] = test system: Escherichia coli; test: Antibacterial activity against ESBL-producing Escherichia coli CCPM(A)-0715117 assessed as reduction in microbial growth after 16 to 18 hrs by microbroth dilution method; type: functional; conditions: time 16-18 hrs
[23] = test system: Staphylococcus aureus; test: Antibacterial activity against Staphylococcus aureus ATCC 29213 assessed as reduction in microbial growth after 16 to 18 hrs by microbroth dilution method; type: functional; conditions: time 16-18 hrs
[24] = test system: Escherichia coli; test: Antibacterial activity against Escherichia coli ATCC 25922 overexpressing DHFR assessed as reduction in microbial growth after 16 to 18 hrs by microbroth dilution method; type: functional; conditions: time 16-18 hrs
[25] = test system: Staphylococcus aureus; test: Antibacterial activity against methicillin-resistant Staphylococcus aureus ATCC 43300 assessed as reduction in microbial growth after 16 to 18 hrs by microbroth dilution method; type: functional; conditions: time 16-18 hrs
[26] = test system: Escherichia coli; test: Binding affinity to Escherichia coli C-terminal hexahistidine tagged DHFR assessed as change in gibbs free energy at 0.2 mM by isothermal titration calorimetry method
[27] = test system: Acinetobacter baumannii; test: Antibacterial activity against multi drug resistant Acinetobacter baumannii CCPM(A)-1100708 assessed as reduction in microbial growth after 16 to 18 hrs by microbroth dilution method; type: functional; conditions: time 16-18 hrs
[28] = test system: Klebsiella pneumoniae; test: Antibacterial activity against ESBL-producing Klebsiella pneumoniae CCPM(A)-081568 assessed as reduction in microbial growth after 16 to 18 hrs by microbroth dilution method; type: functional; conditions: time 16-18 hrs
[29] = test system: Escherichia coli; test: Binding affinity to Escherichia coli C-terminal hexahistidine tagged DHFR assessed as change in enthalpy at 0.2 mM by isothermal titration calorimetry method
[30] = test system: Acinetobacter baumannii; test: Antibacterial activity against multi drug resistant Acinetobacter baumannii CCPM(A)-100903 assessed as reduction in microbial growth after 16 to 18 hrs by microbroth dilution method; type: functional; conditions: time 16-18 hrs
[31] = test system: Acinetobacter baumannii; test: Antibacterial activity against multi drug resistant Acinetobacter baumannii CCPM(A)-100902 assessed as reduction in microbial growth after 16 to 18 hrs by microbroth dilution method; type: functional; conditions: time 16-18 hrs

Chain of Thymidylate synthase (Escherichia coli K-12) (P0A884 whole entry, looked up): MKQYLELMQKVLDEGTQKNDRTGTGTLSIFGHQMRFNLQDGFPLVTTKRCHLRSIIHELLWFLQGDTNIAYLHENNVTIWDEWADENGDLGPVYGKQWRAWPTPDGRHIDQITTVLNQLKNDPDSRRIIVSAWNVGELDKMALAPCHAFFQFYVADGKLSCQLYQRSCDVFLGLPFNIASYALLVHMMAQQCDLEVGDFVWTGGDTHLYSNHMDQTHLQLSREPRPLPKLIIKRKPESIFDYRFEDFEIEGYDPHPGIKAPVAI
Chain of Thymidylate synthase (P0A884 whole entry): as the sequence (P0A884 whole entry, looked up) above

For COc1ccc(Cn2ccc3c4c(N)nc(N)nc4ccc32)cc1, the MIC [1] was 2 µg/mL, the MIC [2] was 0.002 µg/mL and the MIC [3] was 0.25 µg/mL. For the same molecule, the inhibition [4] was 68.1%.

Work on Cc1cc(NS(=O)(=O)c2ccc(N)cc2)no1 [SULFAMETHOXAZOLE] yielded an MIC [2] of 256 µg/mL and an MIC [5] of 2050 µg/mL.

Molecule Nc1nc(N)c2c(ccc3c2ccn3Cc2cccc(C(=O)N3CCOCC3)c2)n1 has an MIC [1] of 512 µg/mL, an MIC [2] of 16 µg/mL and an MIC [3] of 128 µg/mL. The inhibition [4] was 100%.

With Nc1nc(N)c2c(ccc3c2ccn3CC2CC2)n1 the MIC [1] was 4 µg/mL, the MIC [2] was 0.25 µg/mL and the MIC [3] was 0.5 µg/mL. It also gave an inhibition [4] of 20.9%.

Molecule Nc1nc(N)c2c(ccc3c2ccn3Cc2ccc(C(=O)N3CCOCC3)cc2)n1 has an MIC [1] of 128 µg/mL, an MIC [2] of 8 µg/mL and an MIC [3] of 32 µg/mL. The inhibition [4] was 80.3%.

Work on Nc1nc(N)c2c(ccc3c2ccn3Cc2cccc(F)c2)n1 yielded an MIC [6] of 8 µg/mL, an MIC [7] of 16 µg/mL and an MIC [8] of no more than 0.25 µg/mL. The deltaS [9] was -45.8 cal/mol/deg, the MIC [10] was 0.002 µg/mL and the IC50 [11] was 18600 nM. For the same molecule, the “fold change (FC)” value [12] was 4000, the MIC [1] was 0.125 µg/mL and the inhibition [13] was 50%. For the same molecule, the MIC [14] was 0.125 µg/mL, the Activity [15] was “Active” and the MIC [2] was 0.002 µg/mL. The Kd [16] was 75.2 nM, the MIC [17] was 16 µg/mL and the IC50 [18] was 98.4 nM. The MIC [19] was 0.002 µg/mL, the MIC [5] was 0.5 µg/mL and the MIC [20] was 0.25 µg/mL. For the same molecule, the MIC [21] was 0.125 µg/mL, the MIC [22] was 0.002 µg/mL and the MIC [3] was 0.25 µg/mL. It also gave an MIC [23] of 0.125 µg/mL, an MIC [24] of 8 µg/mL and an MIC [25] of 0.06 µg/mL. The deltaG [26] was -9.71 kcal/mol, the MIC [27] was 4 µg/mL and the MIC [28] was 0.002 µg/mL. The deltaH [29] was -23.3 kcal/mol, the MIC [30] was 4 µg/mL and the MIC [31] was 0.0125 µg/mL. For the same molecule, the inhibition [4] was 61%.
